# How the values were obtained:
# [1] = biological target: T1, tyrosinase (Mus musculus, UniProt P11344); experiment: Cellular tyrosinase activity assay (L-DOPA oxidation in cell lysates); type: cell-based, murine; details: melan-a cells, α-MSH, 72 hrs; 6-CEPN 10 or 20 μM, 8-CEPQ 2.5 or 5 μM
# T1 construct: endogenous in cells; host or cells: melan-a cells
# T1 sequence (P11344 19-533): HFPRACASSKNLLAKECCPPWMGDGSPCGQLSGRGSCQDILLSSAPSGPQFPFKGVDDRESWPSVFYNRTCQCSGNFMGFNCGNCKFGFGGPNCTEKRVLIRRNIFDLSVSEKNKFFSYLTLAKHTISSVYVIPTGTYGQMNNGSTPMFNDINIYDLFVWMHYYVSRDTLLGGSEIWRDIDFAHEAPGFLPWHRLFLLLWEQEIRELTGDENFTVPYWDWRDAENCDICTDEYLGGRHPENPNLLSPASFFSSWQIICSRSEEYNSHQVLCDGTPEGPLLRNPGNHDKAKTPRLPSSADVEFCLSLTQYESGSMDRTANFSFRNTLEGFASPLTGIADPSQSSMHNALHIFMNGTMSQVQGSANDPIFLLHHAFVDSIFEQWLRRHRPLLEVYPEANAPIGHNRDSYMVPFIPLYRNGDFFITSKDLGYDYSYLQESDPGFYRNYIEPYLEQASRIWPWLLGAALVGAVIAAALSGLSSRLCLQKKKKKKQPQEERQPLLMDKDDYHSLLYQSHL
# Experimental: Cellular tyrosinase activity was determined by measuring the oxidation of L-3,4-dihydroxyphenylalanine (L-DOPA) to dopachrome in cell lysates. Melan-a cells (1.5×10^5 cells/well) were plated in 1 mL of culture medium in a 24-well multidishes for at least 24 hrs prior to use. The cells were treated with α-MSH (1 μM) alone or with α-MSH plus different concentrations of testing agents for 72 hrs. The cells were washed with cold PBS and lysed in 900 μL of PBS with 1% Triton X-100. After being freeze-thawed at −80° C. for 30 min followed by 25° C. for 30 min, 100 μL of 10 mM L-DOPA was then added to each well. Following incubation at 37° C. for 1 hr, the absorbance of the agents was measured at 490 nm using Victor X4 Multilabel Plate Reader (PerkinElmer, Mass., USA).
# [2] = tested on: tyrosinase; experiment: Western blotting of tyrosinase protein level in melan-a cells; type: cell-based, murine; details: α-MSH, 72 hrs, 20 μM
# Experimental: (§1) Melan-a cells (3×10^5 cells/well) were seeded in 4 mL of culture medium in a 6-well plate for at least 24 hrs prior to use. The cells were treated with α-MSH (1 μM) alone, α-MSH plus plus different concentration of agents for 72 hrs. The cells were washed with cold PBS and then lysed in 100 μL of RIPA buffer containing 1% Nonidet P-40, 0.1% sodium dodecylsulfate, 0.5% sodium deoxycholate, and 2% protease inhibitor at 4° C. Samples were centrifuged at 14,000 rpm for 30 mins at 4° C., and total proteins in the supernatant were separated. 10 μg of denatured proteins were loaded per lane, and separated by 10% SDS-PAGE gel. Proteins were then transferred to Immobilon-P Transfer Membranes (Millipore Co., Bed-ford, Mass.) by semidry transfer. Membranes were incubated with primary antibodies specific for Tyrosinase, tyrosinase-related protein-1 (TRP1), tyrosinase-related protein-2 (TRP2), and microphthalmia-associated transcription factor (MITF). The blots were subsequently washed and incubated with the appropriate secondary antibodies. Immunoreactive protein bands were visualized with enhanced chemiluminescence western blotting detection reagents and quantified using an ODYSSEY Fc Imaging system. The amounts of protein loaded were normalized against a control protein, β-actin.
# [3] = tested on: tyrosinase-related protein-2 (TRP2); experiment: Western blotting of TRP-2 protein level in melan-a cells; type: cell-based, murine; details: α-MSH, 72 hrs, 20 μM
# Experimental: as §1
# [4] = tested on: microphthalmia-associated transcription factor (MITF); experiment: Western blotting of MITF expression in melan-a cells; type: cell-based, murine; details: α-MSH, 72 hrs, 20 μM
# Experimental: as §1
# [5] = tested on: melan-a cells; experiment: Melanosome autophagy by fluorescence microscopy; type: cell-based, murine; details: α-MSH, rapamycin 0.5 μM 24 hrs, 6-CEPN 10 μM, 8-CEPQ 5 μM 72 hrs
# Experimental: Melan-a cells (1.5×10^5 cells/well) were seeded on coverslips in 6-well palte. The cells were treated with (1) α-MSH (1 μM) alone for 24 hrs, (2) α-MSH (1 μM) plus rapamycin (0.5 μM) for 24 hrs, (3) α-MSH (1 μM) plus 6-CEPN (10 μM), or (3) α-MSH (1 μM) plus 8-CEPQ (5 μM) for 72 hrs. Culture medium was removed carefully after the cells reached 50%˜70% level of confluence. Cells were stained by microscopy dual detection reagents (autophagy detection kit, Abcam) for 30 mins at 37° C. The stained cells were analyzed by wide-field fluorescence microscopy (60× magnification). Standard FITC filter and DAPI filter were set to image the autophagic signal and the nuclear signal, respectively.
# [6] = tested on: MelanoDerm (Mel-300-A) epidermal equivalents containing melanocytes; experiment: Tissue viability of artificial skin model (CCK-8); type: cell-based, human; details: whole treatment period (14 days), rapamycin 2.5 μM, 6-CEPN 10 μM, 8-CEPQ 5 μM
# Experimental: Epidermal equivalents containing melanocytes (Mel-300-A) were maintained according to the manufacturer's instructions. Mel-300-A tissue was cultured in EPI-100-NMM-113 medium for 14 days. Agents were dissolved in tissue culture medium and changed every other day. The test agents were either (1) rapamycin (2.5 μM), as the positive control in depigmentation, (2) 6-CEPN (10 μM), or (3) 8-CEPQ (5 μM). The concentration of rapamycin used was lower than 6-CEPN and 8-CEPQ, as rapamycin is toxic to cells at higher concentration. Pigmentation of these skin equivalents was compared against treatment of cells with a culture medium only (denoted as “vehicle”). Tissue viability was assessed on day 14 by CCK-8 assay as described in Example 1. On day 14, single tissues were harvested and photographed. The L* parameter was used to evaluate skin lightening or darkening. The lighter the skin, the greater the L* value. ΔL* value was measured by a Chroma Meter CR400 (Konica Minolta) for an evaluation of lightening as a function of time. Three tissues for each treatment were frozen for the Solvable Melanin assay (Bessou-Touya et al., “Chimeric human epidermal reconstructs to study the role of melanocytes and keratinocytes in pigmentation and photoprotection.” Journal of investigative dermatology 111(6):1103-1108 (1998)). Additional tissues were fixed by 10% formanin. For melanin staining in paraffin-embedded tissues, Fontana-Masson silver staining was used as previously detailed (Barbosa et al., “A simple and economical modification of the Masson-Fontana method for staining melanin granules and enterochromaffin cells.” Stain technology 59(4):193-196 (1984)).
# [7] = tested on: MelanoDerm (Mel-300-A) epidermal equivalents containing melanocytes; experiment: Solvable Melanin assay in artificial skin model; type: cell-based, human; details: 14 days, rapamycin 2.5 μM, 6-CEPN 10 μM, 8-CEPQ 5 μM
# Experimental: Epidermal equivalents containing melanocytes (Mel-300-A) were maintained according to the manufacturer's instructions. Mel-300-A tissue was cultured in EPI-100-NMM-113 medium for 14 days. Agents were dissolved in tissue culture medium and changed every other day. The test agents were either (1) rapamycin (2.5 μM), as the positive control in depigmentation, (2) 6-CEPN (10 μM), or (3) 8-CEPQ (5 μM). The concentration of rapamycin used was lower than 6-CEPN and 8-CEPQ, as rapamycin is toxic to cells at higher concentration. Pigmentation of these skin equivalents was compared against treatment of cells with a culture medium only (denoted as “vehicle”). Tissue viability was assessed on day 14 by CCK-8 assay as described in Example 1. On day 14, single tissues were harvested and photographed. The L* parameter was used to evaluate skin lightening or darkening. The lighter the skin, the greater the L* value. ΔL* value was measured by a Chroma Meter CR400 (Konica Minolta) for an evaluation of lightening as a function of time. Three tissues for each treatment were frozen for the Solvable Melanin assay (Bessou-Touya et al., “Chimeric human epidermal reconstructs to study the role of melanocytes and keratinocytes in pigmentation and photoprotection.” Journal of investigative dermatology 111(6):1103-1108 (1998)). Additional tissues were fixed by 10% formanin. […]
compound,measurement,setting,value
"O=C1C[C@@H](c2ccc(O)cc2)Oc2cc(O)c(/C=C/c3ccccc3)c(O)c21 [6-CEPN, 6-C-(E-phenylethenyl)-naringenin]",tyrosinase activity,[1],significant inhibition on tyrosinase activity in a dose-dependent manner
same,protein level of tyrosinase,[2],significantly suppressed
same,protein level of TRP-2,[3],significantly suppressed
same,expression of MITF,[4],no clear inhibition
same,melanosome autophagy,[5],induced melanosome autophagy
same,cytotoxicity (tissue viability),[6],without significant cytotoxicity
same,amount of melanin in human skin equivalents,[7],significantly inhibited the amount of melanin

# — US10973748B2, “Compositions and methods for lightening skin and reducing hyperpigmentation” (Versitech Limited, priority 2016, dated 2021)
